Tests used:
[1] = tested on: dermal mimics (glycated collagen with human neonatal fibroblasts); test: Evaluation of skin elasticity-improving effect using dermal mimics (three-dimensional images); type: cell-based; conditions: observed about 10 minutes after separation from culture insert
Protocol: (1) 40 μl of 10× P buffer (DMEM (Dulbecco's Modified Eagle Medium (DMEM powder, Gibco, USA)), a Ham's F-12 nutrient mixture (F-12 powder, Gibco, USA), 4 ml of an antibiotic-antifungal agent (PSF, Gibco, USA) in 400 ml of sterile distilled water, 40 μl of reconstitution buffer (obtained by dissolving 2.2 g of NaHCO3 and 4.77 g of HEPES in 100 ml of 0.05M NaOH, and filtering the solution) and 2 μl of 5 M NaOH were added to an Epi-tube and sufficiently mixed.
(2) 320 μl of an aqueous solution of normal collagen or an aqueous solution of glycated collagen is added to and well mixed with the mixture of step (1) and using a pipette.
(3) 10^4 human neonatal fibroblasts (HDFn, Cascade Biologics, USA) are added to and well mixed with the solution of step (2) using a pipette so that the fibroblasts are uniformly distributed in the solution.
(4) A culture insert (12 mm, Transwell®, Corning, USA) is placed in a 12-well culture dish, and the mixture is placed in the culture insert and is allowed to react at 37° for 30 minutes so that the aqueous collagen solution is hardened.
(5) After the collagen has been completely hardened, fibroblast culture medium (M106, Cascade Biologics, USA) is added to both the inside and outside of the culture insert and incubated overnight. Then, the dermal mimic is incubated for in about one week while the medium is replaced at 3-day intervals. In this process, dermal remodeling occurs due to the interaction between the fibroblasts and the collagen fibers.
Specifically, in this Example, the following collagens were prepared: non-glycated collagen (normal collagen); collagen glycated by treatment with 62.5 mM of ribose; collagen glycated by treatment with 62.5 mM of ribose together with 10 ppm of tocopherol; and collagen glycated by treatment with 62.5 mM of ribose together with 1 ppm of DPHP. Herein, the ribose used was obtained by dissolving D-ribose (Sigma, USA) in water and filtering the solution through a 0.2 μm filter (Minisart® sartorious stedim biotech, Germany). […]

[2] = tested on: collagen gel with fibroblasts; test: Collagen gel contraction assay (two-dimensional); type: cell-based, human; conditions: collagen glycated with ribose at 62.5, 125 and 250 mM
Protocol: Specifically, the dermal mimics were prepared according to the method of Reference Example 1, and the glycated collagen solution used in step (2) of the preparation method of Reference Example 1 was obtained by treating collagen with ribose at concentrations of 0, 62.5, 125 and 250 mM to induce collagen glycation. In addition, the ribose used was obtained by dissolving D-ribose (Sigma, USA) in water and filtering the solution through a 0.2 μm filter (Minisart® sartorious stedim biotech, Germany).
A specific method for glycation of collagen is as follows. D-ribose was added to a solution of collagen (obtained by dissolving type I collagen (Sigma, USA) in 0.1% acetic acid to a final concentration of 3 mg/ml) at specific concentrations (62.5, 125 and 250 mM) in a clean bench for preventing the contamination of collagen, and the mixture was placed in a rotation mixer rotatable at 360°, after which the mixture was allowed to react at room temperature for 3 days to induce glycation of the collagen.
In addition, for comparison, a collagen gel contraction assay which is a two-dimensional method was carried out by culturing a collagen gel, obtained by mixing fibroblasts with collagen glycated with the above-described concentrations of ribose, in a general culture dish, and obtaining a digital image of the cultured collagen gel.

## CCCCCCCCCCCCCCCC(=O)O[C@@H]1C[C@@H](C(=O)O)N(C(=O)CCCCCCCCCCCCCCC)C1 [DPHP]
[1]; collagen glycated with 62.5 mM ribose together with 1 ppm DPHP
  breakdown of the dermal mimics (shape/height on three-dimensional image): breakdown of the dermal mimics was inhibited

## O=C[C@H](O)[C@H](O)[C@H](O)CO [ribose, D-ribose]
[2]
  contraction of collagen gels (two-dimensional digital image): not contracted
[1]; collagen glycated with 62.5 mM ribose alone
  shape of the dermal mimics (three-dimensional image): broken down

## tocopherol
[1]; collagen glycated with 62.5 mM ribose together with 10 ppm tocopherol
  breakdown of the dermal mimics (shape/height on three-dimensional image): breakdown of the dermal mimics was inhibited
